The source of these data is patent US20020013349A1, “Methods for treating or preventing pain and anxiety” (priority 1999, published 2002).

The subject of this assay is rats. Format: in vivo, rat. The following applies: positive control; versus mean on baseline days.

The structures appear in SMILES notation.

Procedure: The standard test in rat to measure anxiolytic effect (Geller conflict procedure) was designed by Geller and Seifter and modified by Pollard and Howard (Geller & Seifter, Psychophamracologia 1:482-492 (1960: Pollard & Howard, Psychopharmacology 62:117-121 (1979)). The anxiety-reducing effect of a KCNQ2/3 channel opener was measured using the Geller conflict procedure in rats. Rats are trained to press a lever to receive food pellets during daily 1 hour sessions. The sessions are divided into punished and unpunished phases. During the four, three-minute punished periods, a light signals that each lever press will produce both a pellet and a foot shock (punishment), which reduces lever pressing. The number of punished lever presses on test days (when test compound is administered) is compared to the mean on baseline days. […]

Consider `CNC1=Nc2ccc(Cl)cc2C(c2ccccc2)=[N+]([O-])C1` [chlordiazepoxide], for which the “increase in punished lever pressing” value is more than 50%.
